Data reported in patent publication US8461328B2, “Tricyclic heterocyclic compounds, compositions and methods of use thereof” (Genentech, Inc., priority 2010, dated 2013).

Assays:
Format in all cases: biochemical
JAK1 = target: T1, JAK1 (Homo sapiens, UniProt P23458); assay: JAK1 inhibition (Table 4); conditions: read-out: JAK1 Ki
T1 construct: made in house; host or cells: SF9 insect cells (baculovirus)

JAK2 = target: T2, JAK2 (Homo sapiens, UniProt O60674); assay: JAK2 inhibition (Table 4); conditions: read-out: JAK2 Ki
T2 construct: made in house; host or cells: SF9 insect cells (baculovirus)

JAK3 = target: T3, JAK3 (Homo sapiens, UniProt P52333); assay: JAK3 inhibition (Table 4); conditions: read-out: JAK3 Ki
T3 construct: made in house; host or cells: SF9 insect cells (baculovirus)

TYK2 = target: T4, TYK2 (Homo sapiens, UniProt P29597); assay: TYK2 inhibition (Table 4)
T4 construct: made in house; host or cells: SF9 insect cells (baculovirus)
T4 sequence (P29597 873-1187): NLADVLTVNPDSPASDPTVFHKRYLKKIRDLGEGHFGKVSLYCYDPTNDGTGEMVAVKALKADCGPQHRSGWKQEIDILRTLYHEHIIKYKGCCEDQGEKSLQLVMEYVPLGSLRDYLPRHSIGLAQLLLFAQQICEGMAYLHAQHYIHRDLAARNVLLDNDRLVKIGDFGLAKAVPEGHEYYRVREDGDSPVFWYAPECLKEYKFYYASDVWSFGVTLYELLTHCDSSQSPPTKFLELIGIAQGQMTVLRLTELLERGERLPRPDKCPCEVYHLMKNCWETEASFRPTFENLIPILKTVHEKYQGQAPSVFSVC

T1 sequence (P23458 852-1154): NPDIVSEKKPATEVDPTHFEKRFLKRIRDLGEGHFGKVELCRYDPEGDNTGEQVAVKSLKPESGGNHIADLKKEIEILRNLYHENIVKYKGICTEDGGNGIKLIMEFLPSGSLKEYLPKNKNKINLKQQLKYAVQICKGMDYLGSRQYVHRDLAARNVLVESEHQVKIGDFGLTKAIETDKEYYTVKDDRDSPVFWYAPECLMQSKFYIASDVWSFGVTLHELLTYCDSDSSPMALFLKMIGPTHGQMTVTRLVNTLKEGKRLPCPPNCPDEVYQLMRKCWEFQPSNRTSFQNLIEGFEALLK
T2 sequence (O60674 812-1132): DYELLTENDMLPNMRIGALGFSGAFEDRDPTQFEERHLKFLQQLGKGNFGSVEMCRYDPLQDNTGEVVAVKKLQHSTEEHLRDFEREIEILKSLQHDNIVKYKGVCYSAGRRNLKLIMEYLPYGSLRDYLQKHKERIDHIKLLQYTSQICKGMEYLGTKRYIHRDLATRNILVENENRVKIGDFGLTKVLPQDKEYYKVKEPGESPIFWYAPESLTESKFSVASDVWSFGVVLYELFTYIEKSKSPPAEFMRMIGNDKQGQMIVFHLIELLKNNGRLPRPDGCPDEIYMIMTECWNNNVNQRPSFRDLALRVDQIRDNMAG
T3 sequence (P52333 783-1124): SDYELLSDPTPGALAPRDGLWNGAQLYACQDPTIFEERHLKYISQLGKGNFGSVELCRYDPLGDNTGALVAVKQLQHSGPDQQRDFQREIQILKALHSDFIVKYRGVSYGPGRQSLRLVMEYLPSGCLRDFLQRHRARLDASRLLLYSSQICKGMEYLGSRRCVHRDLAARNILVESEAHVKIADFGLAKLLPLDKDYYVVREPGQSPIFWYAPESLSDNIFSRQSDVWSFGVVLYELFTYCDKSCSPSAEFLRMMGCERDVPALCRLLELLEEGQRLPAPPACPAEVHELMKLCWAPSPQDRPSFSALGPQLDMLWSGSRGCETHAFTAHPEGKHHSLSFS

Ki (JAK1) | Ki (JAK2) | Ki (JAK3) | Ki (TYK2) | SMILES
17.7 nM | 125 nM | 55.3 nM | 473 nM | Cc1cc(CN2CCC(n3c([C@@H](C)O)nc4cnc5[nH]ccc5c43)CC2)n(C)n1 [Example 821, (R)-1-{1-[1-(2,5-Dimethyl-2H-pyrazol-3-ylmethyl)-piperidin-4-yl]-1,6-dihydro-1,3,5,6-tetraaza-as-indacen-2-yl}-ethanol]
18.1 nM | 894 nM | 311 nM | 2810 nM | CCn1cc(CN2CCC(n3c([C@@H](C)O)nc4cnc5[nH]ccc5c43)CC2)cn1 [Example 822, (R)-1-{1-[1-(1-Ethyl-1H-pyrazol-4-ylmethyl)-piperidin-4-yl]-1,6-dihydro-1,3,5,6-tetraaza-as-indacen-2-yl}-ethanol]
22.2 nM | 171 nM | 84.8 nM | 179 nM | C[C@@H](O)c1nc2cnc3[nH]ccc3c2n1C1CCN(Cc2cncn2C)CC1 [Example 823, (R)-1-{1-[1-(3-Methyl-3H-imidazol-4-ylmethyl)-piperidin-4-yl]-1,6-dihydro-1,3,5,6-tetraaza-as-indacen-2-yl}-ethanol]
26 nM | 350 nM | 143 nM | 1960 nM | C[C@@H](O)c1nc2cnc3[nH]ccc3c2n1C1CCN(Cc2ccn(C)n2)CC1 [Example 825, (R)-1-{1-[1-(1-Methyl-1H-pyrazol-3-ylmethyl)-piperidin-4-yl]-1,6-dihydro-1,3,5,6-tetraaza-as-indacen-2-yl}-ethanol]
47 nM | 419 nM | 209 nM | 1160 nM | C[C@@H](O)c1nc2cnc3[nH]ccc3c2n1C1CCN(Cc2nccn2C)CC1 [Example 826, (R)-1-{1-[1-(1-Methyl-1H-imidazol-2-ylmethyl)-piperidin-4-yl]-1,6-dihydro-1,3,5,6-tetraaza-as-indacen-2-yl}-ethanol]
55.5 nM | 428 nM | 516 nM | 493 nM | C[C@@H](O)c1nc2cnc3[nH]ccc3c2n1C1CCN(C2COC2)CC1 [Example 832, (R)-1-[1-(1-Oxetan-3-yl-piperidin-4-yl)-1,6-dihydro-1,3,5,6-tetraaza-as-indacen-2-yl]-ethanol]
18.1 nM | 14 nM | 101 nM | 125 nM | CC(C)(C)NCCOCc1nc2cnc3[nH]ccc3c2n1C1CCN(CCC#N)CC1 [Example 833, 3-{4-[2-(2-tert-Butylamino-ethoxymethyl)-6H-1,3,5,6-tetraaza-as-indacen-1-yl]-piperidin-1-yl}-propionitrile]
33.5 nM | 117 nM | 85.4 nM | 637 nM | N#CCCN1CCC(n2c(COCC(F)(F)F)nc3cnc4[nH]ccc4c32)CC1 [Example 834, 3-{4-[2-(2,2,2-Trifluoro-ethoxymethyl)-6H-1,3,5,6-tetraaza-as-indacen-1-yl]-piperidin-1-yl}-propionitrile]
37.9 nM | 59.1 nM | 29.6 nM | 320 nM | N#CCCN1CCC(n2c(COCc3ccc(F)c(F)c3)nc3cnc4[nH]ccc4c32)CC1 [Example 835, 3-{4-[2-(3,4-Difluoro-benzyloxymethyl)-6H-1,3,5,6-tetraaza-as-indacen-1-yl]-piperidin-1-yl}-propionitrile]
38.6 nM | 89 nM | 95.1 nM | 384 nM | N#CCCN1CCC(n2c(COCC3CCOC3)nc3cnc4[nH]ccc4c32)CC1 (stereo not drawn) [Example 836, 3-{4-[2-(Tetrahydro-furan-3-ylmethoxymethyl)-6H-1,3,5,6-tetraaza-as-indacen-1-yl]-piperidin-1-yl}-propionitrile]
39.6 nM | 83.2 nM | 114 nM | 298 nM | N#CCCN1CCC(n2c(COC3CCOCC3)nc3cnc4[nH]ccc4c32)CC1 [Example 837, 3-{4-[2-(Tetrahydro-pyran-4-yloxymethyl)-6H-1,3,5,6-tetraaza-as-indacen-1-yl]-piperidin-1-yl}-propionitrile]
54.2 nM | 85.5 nM | 90.4 nM | 618 nM | N#CCCN1CCC(n2c(COCC3CCCC3)nc3cnc4[nH]ccc4c32)CC1 [Example 838, 3-[4-(2-Cyclopentylmethoxymethyl-6H-1,3,5,6-tetraaza-as-indacen-1-yl)-piperidin-1-yl]-propionitrile]
61.7 nM | 106 nM | 73.5 nM | 595 nM | N#CCCN1CCC(n2c(COCC3CC3)nc3cnc4[nH]ccc4c32)CC1 [Example 839, 3-[4-(2-Cyclopropylmethoxymethyl-6H-1,3,5,6-tetraaza-as-indacen-1-yl)-piperidin-1-yl]-propionitrile]
62.3 nM | 102 nM | 104 nM | 635 nM | N#CCCN1CCC(n2c(COCC3CCC3)nc3cnc4[nH]ccc4c32)CC1 [Example 840, 3-[4-(2-Cyclobutylmethoxymethyl-6H-1,3,5,6-tetraaza-as-indacen-1-yl)-piperidin-1-yl]-propionitrile]
66.5 nM | 109 nM | 147 nM | 771 nM | CC1CC1COCc1nc2cnc3[nH]ccc3c2n1C1CCN(CCC#N)CC1 (stereo not drawn) [Example 841, 3-{4-[2-(2-Methyl-cyclopropylmethoxymethyl)-6H-1,3,5,6-tetraaza-as-indacen-1-yl]-piperidin-1-yl}-propionitrile]
81 nM | 171 nM | 236 nM | 905 nM | CC(C)OCc1nc2cnc3[nH]ccc3c2n1C1CCN(CCC#N)CC1 [Example 842, 3-[4-(2-Isopropoxymethyl-6H-1,3,5,6-tetraaza-as-indacen-1-yl)-piperidin-1-yl]-propionitrile]
84.2 nM | 80.8 nM | 169 nM | 631 nM | CC(C)OCCOCc1nc2cnc3[nH]ccc3c2n1C1CCN(CCC#N)CC1 [Example 843, 3-{4-[2-(2-Isopropoxy-ethoxymethyl)-6H-1,3,5,6-tetraaza-as-indacen-1-yl]-piperidin-1-yl}-propionitrile]
97.1 nM | 177 nM | 169 nM | 732 nM | N#CCCN1CCC(n2c(COC3CCCC3)nc3cnc4[nH]ccc4c32)CC1 [Example 844, 3-[4-(2-Cyclopentyloxymethyl-6H-1,3,5,6-tetraaza-as-indacen-1-yl)-piperidin-1-yl]-propionitrile]
4.17 nM | 13.9 nM | 52.3 nM | 28.8 nM | Cc1nc2cnc3[nH]ccc3c2n1C1CC2CCC1O2 (stereo not drawn) [Example 845, exo-2-Methyl-1-(7-oxa-bicyclo[2.2.1]hept-2-yl)-1,6-dihydro-1,3,5,6-tetraaza-as-indacene]
120 nM | 156 nM | 71.9 nM | 216 nM | CC(O)c1nc2cnc3[nH]ccc3c2n1C1CC2CCC1O2 (stereo not drawn) [Example 848, endo-1-[1-(7-Oxa-bicyclo[2.2.1]hept-2-yl)-1,6-dihydro-1,3,5,6-tetraaza-as-indacen-2-yl]-ethanol]
4.01 nM | 77.1 nM | 195 nM | 138 nM | CS(=O)(=O)NCCc1nc2cnc3[nH]ccc3c2n1[C@H]1CCCOC1 [Example 854, (S)—N-{2-[1-(Tetrahydro-pyran-3-yl)-1,6-dihydro-1,3,5,6-tetraaza-as-indacen-2-yl]-ethyl}-methanesulfonamide]
5.96 nM | 121 nM | 276 nM | 259 nM | CC(=O)NCCc1nc2cnc3[nH]ccc3c2n1[C@H]1CCCOC1 [Example 856, (S)—N-{2-[1-(Tetrahydro-pyran-3-yl)-1,6-dihydro-1,3,5,6-tetraaza-as-indacen-2-yl]-ethyl}-acetamide]
6.23 nM | 213 nM | 525 nM | 364 nM | O=C(NCCc1nc2cnc3[nH]ccc3c2n1[C@H]1CCCOC1)C1CC1 [Example 857, (S)-Cyclopropanecarboxylic acid {2-[1-(tetrahydro-pyran-3-yl)-1,6-dihydro-1,3,5,6-tetraaza-as-indacen-2-yl]-ethyl}-amide]
10.1 nM | 53 nM | 107 nM | 68.4 nM | OCCc1nc2cnc3[nH]ccc3c2n1[C@H]1CCCOC1 [Example 859, (S)-2-[1-(Tetrahydro-pyran-3-yl)-1,6-dihydro-1,3,5,6-tetraaza-as-indacen-2-yl]-ethanol]
39.4 nM | 205 nM | 1670 nM | 602 nM | C[C@@H](O)c1nc2cnc3[nH]ccc3c2n1C1CCN(C2(CC#N)COC2)CC1 [Example 861, (3-{4-[2-((R)-1-Hydroxy-ethyl)-6H-1,3,5,6-tetraaza-as-indacen-1-yl]-piperidin-1-yl}-oxetan-3-yl)-acetonitrile]
49.5 nM | 437 nM | 445 nM | 994 nM | CS(=O)(=O)NCCc1nc2cnc3[nH]ccc3c2n1[C@@H]1CCCOC1 [Example 862, (R)—N-{2-[1-(Tetrahydro-pyran-3-yl)-1,6-dihydro-1,3,5,6-tetraaza-as-indacen-2-yl]-ethyl}-methanesulfonamide]
67.2 nM | 828 nM | 1240 nM | 2020 nM | O=C(NCCc1nc2cnc3[nH]ccc3c2n1[C@@H]1CCCOC1)C1CC1 [Example 863, (R)-Cyclopropanecarboxylic acid {2-[1-(tetrahydro-pyran-3-yl)-1,6-dihydro-1,3,5,6-tetraaza-as-indacen-2-yl]-ethyl}-amide]
